# Reference: ChEMBL document CHEMBL1201862, “PubChem BioAssay data set” (2004)
#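 Tested at 5 concentrations; 48 h exposure; 96-well plates; endpoints linearly interpolated, else capped at highest concentration. GI50 = concentration required for 50% inhibition of growth.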 Activity calls are given as the source filed them. Rule as the data show it: active = GI50 up to about 1.1 µM and inactive = higher.
# What was measured:
# Assay in all cases: growth of human tumour cells (NCI), 48 h
# [1] = system: SK-MEL-2
# [2] = system: UO-31
# [3] = system: MOLT-4
# [4] = system: HCT-116
# [5] = system: OVCAR-3
# [6] = system: MDA-MB-435
# [7] = system: RPMI-8226
# [8] = system: Hs-578T
# [9] = system: M14
# [10] = system: PC-3
# [11] = system: U-251
# [12] = system: HOP-92
# [13] = system: K562
# [14] = system: Malme-3M
# [15] = system: HL-60
# [16] = system: OVCAR-4
# [17] = system: MDA-N
# [18] = system: 786-0
# [19] = system: EKVX
# [20] = system: BT-549
Structure (SMILES),GI50 [1],GI50 [2],GI50 [3],GI50 [4],GI50 [5],GI50 [6],GI50 [7],GI50 [8],GI50 [9],GI50 [10],GI50 [11],GI50 [12],GI50 [13],GI50 [14],GI50 [15],GI50 [16],GI50 [17],GI50 [18],GI50 [19],GI50 [20]
COC1=CC(=O)C(O)=C(C[C@@]2(C)[C@@H]3CCC[C@H](COC(=O)CCCCCNC(=O)OC(C)(C)C)[C@@]3(C)CC[C@@H]2C)C1=O,> 10 µM (inactive),6.47 µM (inactive),3.1 µM (inactive),6.55 µM (inactive),5.92 µM (inactive),> 10 µM (inactive),3.54 µM (inactive),4.52 µM (inactive),6.56 µM (inactive),> 10 µM (inactive),3.9 µM (inactive),3.9 µM (inactive),3.86 µM (inactive),5.9 µM (inactive),3.04 µM (inactive),> 10 µM (inactive),> 10 µM (inactive),> 10 µM (inactive),8.28 µM (inactive),
COC(=O)c1cc(CC2Cc3cc4c(cc3C2)CCC4)cc2c1CCC2,40.4 µM (inactive),> 100 µM (inactive),23.7 µM (inactive),58.7 µM (inactive),> 100 µM (inactive),48 µM (inactive),41 µM (inactive),> 100 µM (inactive),> 100 µM (inactive),81.8 µM (inactive),> 100 µM (inactive),88.9 µM (inactive),> 100 µM (inactive),> 100 µM (inactive),56.6 µM (inactive),> 100 µM (inactive),60.3 µM (inactive),> 100 µM (inactive),> 100 µM (inactive),
O=C1CCCSCCCC(=O)CCCSCCC1,,> 100 µM (inactive),> 100 µM (inactive),> 100 µM (inactive),> 100 µM (inactive),> 100 µM (inactive),,,> 100 µM (inactive),> 100 µM (inactive),> 100 µM (inactive),> 100 µM (inactive),> 100 µM (inactive),,> 100 µM (inactive),> 100 µM (inactive),> 100 µM (inactive),> 100 µM (inactive),> 100 µM (inactive),> 100 µM (inactive)
CC(C)CCNC(=O)c1ccc(CNC(=O)/C=C/c2ccc3ccccc3c2)cc1,> 100 µM (inactive),44.1 µM (inactive),> 100 µM (inactive),> 100 µM (inactive),> 100 µM (inactive),> 100 µM (inactive),> 100 µM (inactive),,46.3 µM (inactive),> 100 µM (inactive),36 µM (inactive),> 100 µM (inactive),> 100 µM (inactive),,> 100 µM (inactive),59.3 µM (inactive),> 100 µM (inactive),> 100 µM (inactive),> 100 µM (inactive),
COc1cc(C2c3cc4c(cc3OC(NN=C(C)C)C2C)OCO4)cc(OC)c1O (configuration not stated),8.61 µM (inactive),46.9 µM (inactive),,24.9 µM (inactive),19.5 µM (inactive),1.24 µM (inactive),6.21 µM (inactive),,22.6 µM (inactive),20.8 µM (inactive),29.2 µM (inactive),62.4 µM (inactive),,8.75 µM (inactive),,48.3 µM (inactive),3 µM (inactive),28.1 µM (inactive),,12.2 µM (inactive)
C=C1C(=O)O[C@@H]2C=C(C)C3=CC(=O)[C@](C)(C[C@H](OC(=O)/C(C)=C\C)[C@@H]12)O3,1.7 µM (inactive),1.09 µM (active),0.273 µM (active),0.282 µM (active),,0.813 µM (active),0.2 µM (active),2.85 µM (inactive),0.644 µM (active),1.51 µM (inactive),1.85 µM (inactive),0.671 µM (active),0.282 µM (active),,0.157 µM (active),4.88 µM (inactive),0.311 µM (active),0.374 µM (active),,
O=C(CC(C(=O)c1ccsc1)c1ccccc1)c1cccs1 (configuration not stated),,19.6 µM (inactive),49.9 µM (inactive),44.5 µM (inactive),96.8 µM (inactive),40.6 µM (inactive),> 100 µM (inactive),58.7 µM (inactive),24.8 µM (inactive),,62.2 µM (inactive),> 100 µM (inactive),> 100 µM (inactive),,41.1 µM (inactive),55 µM (inactive),69.2 µM (inactive),> 100 µM (inactive),> 100 µM (inactive),
O=C1C=C2CCC[C@H]3OC(=O)C[C@@]23CC1,> 100 µM (inactive),,> 100 µM (inactive),> 100 µM (inactive),> 100 µM (inactive),> 100 µM (inactive),> 100 µM (inactive),> 100 µM (inactive),> 100 µM (inactive),> 100 µM (inactive),> 100 µM (inactive),> 100 µM (inactive),> 100 µM (inactive),> 100 µM (inactive),> 100 µM (inactive),> 100 µM (inactive),> 100 µM (inactive),> 100 µM (inactive),> 100 µM (inactive),
Cn1cnc(N2CCCC2)c(C#N)c1=O,> 100 µM (inactive),> 100 µM (inactive),> 100 µM (inactive),> 100 µM (inactive),> 100 µM (inactive),> 100 µM (inactive),> 100 µM (inactive),> 100 µM (inactive),> 100 µM (inactive),> 100 µM (inactive),> 100 µM (inactive),> 100 µM (inactive),> 100 µM (inactive),> 100 µM (inactive),> 100 µM (inactive),> 100 µM (inactive),> 100 µM (inactive),> 100 µM (inactive),> 100 µM (inactive),
COc1ccccc1NC(=S)NN=C(C)c1cccc(C(C)=NNC(=S)Nc2ccccc2OC)n1,44.9 µM (inactive),20.6 µM (inactive),3.54 µM (inactive),2.95 µM (inactive),7.87 µM (inactive),23 µM (inactive),24.6 µM (inactive),,5.06 µM (inactive),27 µM (inactive),34.3 µM (inactive),21.7 µM (inactive),20 µM (inactive),3.49 µM (inactive),26.3 µM (inactive),24.4 µM (inactive),70.5 µM (inactive),6.64 µM (inactive),24 µM (inactive),
O=C1Nc2ccccc2/C1=N/NC(=S)N1CCCCCC1,1.66 µM (inactive),0.35 µM (active),0.366 µM (active),0.312 µM (active),0.163 µM (active),1.26 µM (inactive),0.824 µM (active),,0.684 µM (active),0.453 µM (active),1.11 µM (active),1.82 µM (inactive),,0.272 µM (active),,1.38 µM (inactive),2.8 µM (inactive),0.332 µM (active),0.851 µM (active),
CCCCNC(=S)N/C=C1\C(=O)Oc2ccccc2C1=O,38.5 µM (inactive),37.2 µM (inactive),43.3 µM (inactive),73.5 µM (inactive),> 100 µM (inactive),61 µM (inactive),,,76.6 µM (inactive),92.5 µM (inactive),54 µM (inactive),> 100 µM (inactive),,,10 µM (inactive),74.5 µM (inactive),64 µM (inactive),> 100 µM (inactive),> 100 µM (inactive),
Cc1nc2c(C)ccc([N+](=O)[O-])c2c(NCCCN(C)C)c1C,> 44.6 µM (inactive),> 100 µM (inactive),28.3 µM (inactive),74.6 µM (inactive),47.9 µM (inactive),39.2 µM (inactive),52.6 µM (inactive),63 µM (inactive),19.5 µM (inactive),11.7 µM (inactive),> 57.8 µM (inactive),> 100 µM (inactive),32.3 µM (inactive),29 µM (inactive),24.9 µM (inactive),> 100 µM (inactive),33.1 µM (inactive),> 90.8 µM (inactive),> 59.7 µM (inactive),
CCOC(=O)Cn1c(=O)c2nc(SC)sc2n(-c2ccc(C)cc2)c1=S,23.7 µM (inactive),48.6 µM (inactive),> 100 µM (inactive),> 71.8 µM (inactive),50.4 µM (inactive),99.5 µM (inactive),> 100 µM (inactive),19.2 µM (inactive),> 61.7 µM (inactive),38.1 µM (inactive),24.5 µM (inactive),21.6 µM (inactive),> 100 µM (inactive),40.4 µM (inactive),> 100 µM (inactive),10.2 µM (inactive),> 100 µM (inactive),18.1 µM (inactive),74.3 µM (inactive),
O=C(/N=N/c1ccc(Cl)cc1Cl)NNc1ccc(Cl)cc1Cl,12.9 µM (inactive),12 µM (inactive),16.3 µM (inactive),13.9 µM (inactive),15.9 µM (inactive),16.1 µM (inactive),19 µM (inactive),,> 10 µM (inactive),12.2 µM (inactive),18.5 µM (inactive),,20.8 µM (inactive),18.6 µM (inactive),20.7 µM (inactive),13.3 µM (inactive),16.2 µM (inactive),15.3 µM (inactive),,14.8 µM (inactive)
Oc1cccc(-c2nc3cc(F)ccc3s2)c1,19.8 µM (inactive),14.5 µM (inactive),20.5 µM (inactive),21.3 µM (inactive),11.5 µM (inactive),23.9 µM (inactive),20.3 µM (inactive),,18.1 µM (inactive),24.2 µM (inactive),24.5 µM (inactive),,27.5 µM (inactive),16.2 µM (inactive),23.2 µM (inactive),9.42 µM (inactive),19.4 µM (inactive),19.5 µM (inactive),3.84 µM (inactive),16.9 µM (inactive)
